Reference: patent US20200392158A1, “INHIBITORS OF LEUCINE RICH REPEAT KINASE 2” (GLAXOSMITHKLINE INTELLECTUAL PROPERTY DEVELOPMENT LIMITED, priority 2017, published 2020)

Each molecule was assayed against T1, LRRK2 kinase in SH-SY5Y cells over-expressing recombinant full length LRRK2 (Homo sapiens, UniProt Q5S007) (assay: Recombinant cellular LRRK2 AlphaScreen assay (LRRK2 Ser935 phosphorylation)). Details: 60 min.
T1 construct: A BacMam virus expressing full length recombinant LRRK2 was purchased from Invitrogen; host or cells: SH-SY5Y human neuroblastoma cells transduced with BacMam LRRK2 virus
Type: cell-based
Outline: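 SH-SY5Y cells transduced with BacMam full-length LRRK2 (MOI 50) for 24 h, then treated 60 min at 37 °C with compound (11-point 1:4 series, top 10 uM, 0.1% DMSO). Lysates probed by AlphaScreen for pSer935 vs total LRRK2; values fitted to a sigmoidal dose-response model.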

T1 sequence (Q5S007 whole entry): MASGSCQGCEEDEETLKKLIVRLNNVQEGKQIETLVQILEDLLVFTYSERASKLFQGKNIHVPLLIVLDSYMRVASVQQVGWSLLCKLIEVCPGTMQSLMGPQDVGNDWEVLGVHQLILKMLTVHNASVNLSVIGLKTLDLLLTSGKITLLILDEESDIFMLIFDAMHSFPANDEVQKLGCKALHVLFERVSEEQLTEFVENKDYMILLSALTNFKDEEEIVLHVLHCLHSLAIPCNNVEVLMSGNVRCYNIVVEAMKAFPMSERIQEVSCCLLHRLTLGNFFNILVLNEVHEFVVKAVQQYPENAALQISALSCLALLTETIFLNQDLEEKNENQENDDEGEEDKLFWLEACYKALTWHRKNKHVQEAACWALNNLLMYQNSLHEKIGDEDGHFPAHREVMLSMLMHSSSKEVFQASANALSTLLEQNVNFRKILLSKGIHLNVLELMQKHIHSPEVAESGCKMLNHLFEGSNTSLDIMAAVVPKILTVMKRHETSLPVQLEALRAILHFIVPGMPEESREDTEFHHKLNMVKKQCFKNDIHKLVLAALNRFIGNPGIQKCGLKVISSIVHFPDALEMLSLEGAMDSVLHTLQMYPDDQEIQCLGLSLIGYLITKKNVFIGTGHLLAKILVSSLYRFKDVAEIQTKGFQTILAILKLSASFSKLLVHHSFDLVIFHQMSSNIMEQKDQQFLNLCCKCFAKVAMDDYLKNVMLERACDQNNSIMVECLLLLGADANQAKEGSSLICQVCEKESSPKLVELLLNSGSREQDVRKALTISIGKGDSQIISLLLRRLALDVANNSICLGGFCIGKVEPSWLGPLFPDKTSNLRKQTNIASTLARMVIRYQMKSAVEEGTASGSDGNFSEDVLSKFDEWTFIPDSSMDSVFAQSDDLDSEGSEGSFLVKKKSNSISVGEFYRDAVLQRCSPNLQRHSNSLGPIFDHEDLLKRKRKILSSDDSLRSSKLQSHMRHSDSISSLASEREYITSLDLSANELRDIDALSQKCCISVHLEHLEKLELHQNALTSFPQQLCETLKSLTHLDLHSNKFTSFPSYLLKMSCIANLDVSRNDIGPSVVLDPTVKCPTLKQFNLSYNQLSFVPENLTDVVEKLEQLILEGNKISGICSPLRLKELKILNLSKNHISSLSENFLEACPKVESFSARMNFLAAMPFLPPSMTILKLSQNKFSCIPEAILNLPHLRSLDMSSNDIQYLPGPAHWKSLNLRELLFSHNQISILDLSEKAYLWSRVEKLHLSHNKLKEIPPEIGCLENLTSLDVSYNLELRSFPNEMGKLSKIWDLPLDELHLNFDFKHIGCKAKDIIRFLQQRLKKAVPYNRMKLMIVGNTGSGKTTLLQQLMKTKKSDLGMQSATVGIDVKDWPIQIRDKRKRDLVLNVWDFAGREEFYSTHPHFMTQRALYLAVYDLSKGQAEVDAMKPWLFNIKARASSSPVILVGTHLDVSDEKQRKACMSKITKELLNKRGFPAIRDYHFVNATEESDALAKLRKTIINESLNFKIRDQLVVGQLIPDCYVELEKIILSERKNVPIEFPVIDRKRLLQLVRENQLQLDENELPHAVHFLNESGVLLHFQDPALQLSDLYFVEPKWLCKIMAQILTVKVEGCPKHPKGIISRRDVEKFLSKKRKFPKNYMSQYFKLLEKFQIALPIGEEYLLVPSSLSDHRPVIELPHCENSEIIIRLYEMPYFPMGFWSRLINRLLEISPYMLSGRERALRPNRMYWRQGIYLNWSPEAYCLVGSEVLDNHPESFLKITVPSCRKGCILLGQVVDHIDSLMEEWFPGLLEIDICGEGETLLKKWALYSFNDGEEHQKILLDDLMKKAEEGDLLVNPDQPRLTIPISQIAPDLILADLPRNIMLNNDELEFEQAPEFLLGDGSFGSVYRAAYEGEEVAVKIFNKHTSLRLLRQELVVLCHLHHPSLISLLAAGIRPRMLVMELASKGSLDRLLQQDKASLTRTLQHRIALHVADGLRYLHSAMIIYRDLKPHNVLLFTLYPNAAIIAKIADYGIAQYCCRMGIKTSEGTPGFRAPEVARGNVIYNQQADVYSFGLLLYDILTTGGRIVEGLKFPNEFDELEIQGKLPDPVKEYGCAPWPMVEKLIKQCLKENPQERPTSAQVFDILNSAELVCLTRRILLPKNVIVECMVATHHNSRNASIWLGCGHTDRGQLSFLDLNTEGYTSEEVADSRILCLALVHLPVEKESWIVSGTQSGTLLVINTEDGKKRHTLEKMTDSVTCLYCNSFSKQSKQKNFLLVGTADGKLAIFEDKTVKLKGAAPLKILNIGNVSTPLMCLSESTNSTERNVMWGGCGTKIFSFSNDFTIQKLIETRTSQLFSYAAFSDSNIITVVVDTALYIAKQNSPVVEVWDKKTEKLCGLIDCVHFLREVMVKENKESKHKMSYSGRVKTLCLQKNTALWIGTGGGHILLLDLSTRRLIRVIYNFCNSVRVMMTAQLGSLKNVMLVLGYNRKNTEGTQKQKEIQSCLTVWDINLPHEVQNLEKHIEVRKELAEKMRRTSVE

| IC50 [µM] | SMILES |
| --- | --- |
| ≤ 0.1 | Cc1c2c(nn1C1CC(N3CCC(F)(F)C3)C1)OCCC(C)Nc1nc(ncc1Cl)N2 (single isomer, unassigned) [E314, 14-Chloro-5-[3-(3,3-difluoropyrrolidin-1-yl)cyclobutyl]-4,11-dimethyl-8-oxa-2,5,6,12,16,17-hexaazatricyclo [11.3.1.0^3,7]-heptadeca-1(16),3,6,13(17),14-pentaene] |
| ≤ 0.1 | Cc1c2c(nn1C1COC1)OCC(F)CNc1nc(ncc1Cl)N2 (single isomer, unassigned) [E322, 14-Chloro-10-fluoro-4-methyl-5-(oxetan-3-yl)-8-oxa-2,5,6,12,16,17-hexaazatricyclo[11.3.1.0^3,7]heptadeca-1(16),3,6,13(17),14-pentaene] |
| ≤ 0.1 | Cc1c2c(nn1C1COCCC1F)OCC[C@@H](C)Nc1nc(ncc1Cl)N2 (single isomer, unassigned) [E325] |
| ≤ 0.1 | COC1COc2nc(ncc2Cl)Nc2c(nn(C3CCOCC3)c2C)OC1 (single isomer, unassigned) [E328, 14-Chloro-10-methoxy-4-methyl-5-(oxan-4-yl)-8,12-dioxa-2,5,6,16,17-pentaazatricyclo[11.3.1.0^3,7]heptadeca-1(16),3,6,13(17),14-pentaene] |
| ≤ 0.1 | Cc1c2c(nn1C1CCOCC1)OCCC(C)Oc1nc(ncc1Cl)N2 (single isomer, unassigned) [E330, 14-Chloro-4,11-dimethyl-5-(oxan-4-yl)-8,12-dioxa-2,5,6,16,17-pentaazatricyclo[11.3.1.0^3,7]heptadeca-1(17), 3,6,13,15-pentaene] |
| ≤ 0.1 | Cc1c2c(nn1C1CCOCC1F)OCC(F)CNc1nc(ncc1Cl)N2 (single isomer, unassigned) [E334, 14-Chloro-10-fluoro-5-(3-fluorooxan-4-yl)-4-methyl-8-oxa-2,5,6,12,16,17-hexaazatricyclo[11.3.1.0^3,7] heptadeca-1(16),3,6,13(17),14-pentaene] |
| ≤ 0.1 | COC1CNc2nc(ncc2Cl)Nc2c(nn(C3CCOCC3)c2Cl)OC1 (single isomer, unassigned) [E341, 4,14-Dichloro-10-methoxy-5-(oxan-4-yl)-8-oxa-2,5,6,12,16,17-hexaazatricyclo[11.3.1.0^3,7]heptadeca-1(16),3,6,13(17),14-pentaene] |
| ≤ 0.1 | Cc1c2c(nn1C1CCOCC1)OCCC(C)Nc1cc(ncc1Cl)N2 (single isomer, unassigned) [E345, 14-Chloro-4,11-dimethyl-5-(oxan-4-yl)-8-oxa-2,5,6,12,16-pentaazatricyclo[11.3.1.0^3,7]heptadeca-1(16),3,6,13 (17),14-pentaene] |
| ≤ 0.1 | Cc1c2c(nn1C1CCCOC1)OCCC(C)Nc1cc(ncc1Cl)N2 (single isomer, unassigned) [E346, 14-Chloro-4,11-dimethyl-5-(oxan-3-yl)-8-oxa-2,5,6,12,16-pentaazatricyclo[11.3.1.0^3,7]heptadeca-1(16),3,6,13 (17),14-pentaene] |
| ≤ 0.1 | Cc1c2c(nn1C1COCC(F)C1)OCCCNc1nc(ncc1Cl)N2 (single isomer, unassigned) [E371, 14-Chloro-5[5-fluorooxan-3-yl]-4-methyl-8-oxa-2,5,6,12,16,17-hexaazatricyclo[11.3.1.0^3,7]heptadeca-1(16),3,6, 13(17),14-pentaene] |
| ≤ 0.1 | Cc1c2c(nn1C1CCC(N3CCOCC3)CC1)OCCCNc1nc(ncc1Cl)N2 (single isomer, unassigned) [E380, 14-Chloro-4-methyl-5-[4-(morpholin-4-yl)cyclohexyl]-8-oxa-2,5,6,12,16,17-hexaazatricyclo [11.3.1.0^3,7]heptadeca-1(16),3,6,13(17),14-pentaene] |
| ≤ 0.1 | Cc1c2c(nn1C1CCN(C3CCOC3)CC1)OCC[C@@H](C)Nc1nc(ncc1Cl)N2 (single isomer, unassigned) [E383] |
| ≤ 0.1 | Cc1c2c(nn1C1CCOCC1(F)F)OCC[C@@H](C)Nc1nc(ncc1Cl)N2 (single isomer, unassigned) [E392] |
| ≤ 0.1 | Cc1c2c(nn1C1CN(C3COC3)CCC1(F)F)OCCCNc1nc(ncc1Cl)N2 (single isomer, unassigned) [E408, 14-Chloro-5-[4,4-difluoro-1-(oxetan-3-yl)piperidin-3-yl]-4-methyl-8-oxa-2,5,6,12,16,17-hexaazatricyclo[11.3.1.0^3,7]heptadeca-1(16),3,6,13(17),14-pentaene] |
| ≤ 0.1 | Cc1c2c(nn1C1CCOCC1C)OCCCNc1nc(ncc1Cl)N2 (single isomer, unassigned) [E412] |
| ≤ 0.1 | C[C@@H]1CCOc2nn(C3CN(C4COC4)CCC3(F)F)c(Cl)c2Nc2ncc(Cl)c(n2)N1 (single isomer, unassigned) [E442] |
| ≤ 0.1 | Cc1c2c(nn1C1CCOCC1C(F)(F)F)OCC[C@@H](C)Nc1nc(ncc1Cl)N2 (single isomer, unassigned) [E448] |

| IC50 [µM] | SMILES |
| --- | --- |
| ≤ 0.1 | COC1CNc2nc(ncc2Cl)Nc2c(nn(C3CCOCC3)c2C)OC1 (stereo not shown) [E2, 14-Chloro-10-methoxy-4-methyl-5-(oxan-4-yl)-8-oxa-2,5,6,12,16,17-hexaazatricyclo [11.3.1.0^3,7]heptadeca-1(16),3,6,13(17),14-pentaene] |
| ≤ 0.1 | Cc1c2c(nn1C1CCCOC1)OCCCNc1nc(ncc1Cl)N2 (stereo not shown) [E8, 14-Chloro-4-methyl-5-(oxan-3-yl)-8-oxa-2,5,6,12,16,17-hexaazatricyclo[11.3.1.0^3,7]heptadeca-1(16),3,6,13(17),14-pentaene] |
| ≤ 0.1 | N#Cc1c2c(nn1C1CCOCC1)OCCCNc1nc(ncc1Cl)N2 [E14, 14-Chloro-5-(oxan-4-yl)-8-oxa-2,5,6,12,16,17-hexaazatricyclo[11.3.1.0^3,7]heptadeca-1(16),3,6,13(17),14-pentaene-4-carbonitrile] |
| ≤ 0.1 | N#Cc1cnc2nc1NCCCOc1nn(C3CCOCC3)c(Cl)c1N2 [E15, 4-Chloro-5-(oxan-4-yl)-8-oxa-2,5,6,12,16,17-hexaazatricyclo[11.3.1.0^3,7]heptadeca-1(16),3,6,13(17),14-pentaene-14-carbonitrile] |
| ≤ 0.1 | Cc1c2c(nn1C1CCOCC1)OCC(F)CNc1nc(ncc1Cl)N2 (stereo not shown) [E16, 14-Chloro-10-fluoro-4-methyl-5-(oxan-4-yl)-8-oxa-2,5,6,12,16,17-hexaazatricyclo [11.3.1.0^3,7]heptadeca-1(16),3,6,13(17),14-pentaene] |
| ≤ 0.1 | Cc1c2c(nn1C1CCOCC1)OCCCNc1nc(ncc1C#N)N2 [E69, 4-Methyl-5-(oxan-4-yl)-8-oxa-2,5,6,12,16,17-hexaazatricyclo[11.3.1.0^3,7]heptadeca-1(16),3,6,13(17),14-pentaene-14-carbonitrile] |
| ≤ 0.1 | Cc1c2c(nn1C)OCCCNc1nc(ncc1Cl)N2 [E108, 14-Chloro-4,5-dimethyl-8-oxa-2,5,6,12,16,17-hexaazatricyclo [11.3.1.0^3,7]heptadeca-1(16),3,6,13(17),14-pentaene] |
| ≤ 0.1 | Cc1c2c(nn1C1CCOCC1)OCCCNc1nc(ncc1C(F)(F)F)N2 [E111, 4-Methyl-5-(oxan-4-yl)-14-(trifluoromethyl)-8-oxa-2,5,6,12,16, 17-hexaazatricyclo[11.3.1.0^3,7]heptadeca-1(16),3,6,13(17),14-pentaene] |
| ≤ 0.1 | FC(F)c1c2c(nn1C1CCOCC1)OCCCNc1nc(ncc1C(F)(F)F)N2 [E118, 4-(Difluoromethyl)-5-(oxan-4-yl)-14-(trifluoromethyl)-8-oxa-2,5,6,12,16,17-hexaazatricyclo[11.3.1.0^3,7]heptadeca-1(16),3,6, 13(17),14-pentaene] |
| ≤ 0.1 | COC1CNc2nc(ncc2C(F)(F)F)Nc2c(nn(C3CCOCC3)c2C)OC1 (stereo not shown) [E119, 10-Methoxy-4-methyl-5-(oxan-4-yl)-14-(trifluoromethyl)-8-oxa-2,5,6,12,16,17-hexaazatricyclo[11.3.1.0^3,7]heptadeca-1(16),3,6, 13(17),14-pentaene] |
| ≤ 0.1 | Cc1c2c(nn1C1CCOC1)OCCCNc1nc(ncc1Cl)N2 (stereo not shown) [E122, 14-Chloro-4-methyl-5-(oxolan-3-yl)-8-oxa-2,5,6,12,16,17-hexa azatricyclo[11.3.1.0^3,7]heptadeca-1(16),3,6,13(17),14-pentaene] |
| ≤ 0.1 | Cc1c2c(nn1C1CCOCC1)OCCCNc1cc(ncc1C(F)(F)F)N2 [E125, 4-Methyl-5-(oxan-4-yl)-14-(trifluoromethyl)-8-oxa-2,5,6,12,16-pentaazatricyclo[11.3.1.0^3,7]heptadeca-1(16),3,6,13(17),14-pentaene] |
| ≤ 0.1 | Cc1c2c(nn1C1CCOC1)OCCCNc1nc(ncc1C(F)(F)F)N2 (stereo not shown) [E126, 4-Methyl-5-(oxolan-3-yl)-14-(trifluoromethyl)-8-oxa-2,5,6,12,16, 17-hexaazatricyclo[11.3.1.0^3,7]heptadeca-1(16),3,6,13(17),14-pentaene] |
| ≤ 0.1 | Cc1c2c(nn1C1CCCOC1)OCCCNc1nc(ncc1C(F)(F)F)N2 (stereo not shown) [E131, 4-Methyl-5-(oxan-3-yl)-14-(trifluoromethyl)-8-oxa-2,5,6,12,16, 17-hexaazatricyclo[11.3.1.0^3,7]heptadeca-1(16),3,6,13(17),14-pentaene] |
| ≤ 0.1 | Cc1c2c(nn1C1CCOCC1)OCC(C)CNc1nc(ncc1Cl)N2 (stereo not shown) [E135, 14-Chloro-4,10-dimethyl-5-(oxan-4-yl)-8-oxa-2,5,6,12,16,17-hexaazatricyclo[11.3.1.0^3,7]heptadeca-1(16),3,6,13(17),14-pentaene] |
| ≤ 0.1 | Cc1c2c(nn1C1CCOCC1C)OCCCNc1nc(ncc1Cl)N2 (stereo not shown) [E139, 14-Chloro-4-methyl-5-(3-methyloxan-4-yl)-8-oxa-2,5,6,12,16,17-hexaazatricyclo[11.3.1.0^3,7]heptadeca-1(16),3,6,13(17),14-pentaene] |
| ≤ 0.1 | Cc1c2c(nn1C1CCC(F)(F)CC1)OCCCNc1nc(ncc1Cl)N2 [E142, 14-Chloro-5-(4,4-difluorocyclohexyl)-4-methyl-8-oxa-2,5,6,12, 16,17-hexaazatricyclo[11.3.1.0^3,7]heptadeca-1(16),3,6,13(17),14-pentaene] |
